The results in this text go back to patent publication US20230025976A1, “PRMT5 Inhibitor for Use In A Method of Treating Psoriasis and Other Autoimmune Conditions” (Pfizer Inc., priority 2020, published 2023).

The assay deals with psoriasis patient. The assay can be described thus: Treatment of a psoriasis patient (case report, Example 1). Format: in vivo, human. The settings on record: for Psoriasis symptoms, skin, front of torso / Psoriasis symptoms, skin, back of torso: psoriasis patient. The protocol: They had chronic psoriatic lesions on the front and back sides of their torso. The lesions covered 75% of their body, and the patient had difficulty controlling these symptoms despite having used several different medications in the past. The psoriasis symptoms worsened after chemotherapy. The patient was treated with 1 mg of (1S,2S,3S,5R)-3-((6-(difluoromethyl)-5-fluoro-1,2,3,4-tetrahydroisoquinolin-8-yl) oxy)-5-(4-methyl-7H-pyrrolo[2,3-d]pyrimidin-7-yl)cyclopentane-1,2-diol orally twice a day, for four months. During the treatment period the patient was questioned about other medical conditions, if any, they were then experiencing. […] The patient discontinued treatment after four months, for reasons unrelated to their psoriasis. […] Photos taken after two and six weeks of treatment document the clearing of psoriasis symptoms. FIGS. 1 and 2 depict said clearing of psoriasis symptoms.

Structures are written as SMILES.

As to `Cc1ncnc2c1ccn2[C@@H]1C[C@H](Oc2cc(C(F)F)c(F)c3c2CNCC3)[C@@H](O)[C@H]1O` [(1S,2S,3S,5R)-3-((6-(difluoromethyl)-5-fluoro-1,2,3,4-tetrahydroisoquinolin-8-yl)oxy)-5-(4-methyl-7H-pyrrolo [2,3-d]pyrimidin-7-yl)cyclopentane-1,2-diol], the “Psoriatic skin lesions after cessation of treatment” value (1 mg orally twice a day for four months, one month after cessation of treatment) was “remained in remission”. The Psoriatic skin lesions result (person, severe psoriasis, 1 mg orally twice a day, following six weeks treatment) is reported as “significant clearing”. Also, the “Psoriatic skin lesions and related itching, patient-reported” value (person, severe psoriasis, 1 mg orally twice a day, within one week of initiating treatment) is “improvement in their psoriatic skin lesions and a lessening of related itching”. Further, the “Psoriasis symptoms, skin, front of torso” value runs as follows: (1 mg twice daily for six weeks, FIG. 1B) “mild”; (1 mg twice daily for two weeks, FIG. 1A) “moderate”. The “Psoriasis symptoms, skin, back of torso” value reads like this: (1 mg twice daily for six weeks, FIG. 2B) “mild”; (1 mg twice daily for two weeks, FIG. 2A) “moderate”.
